For data set [1], the system named is CHO pLDLR-Luciferase cells. The data set is described as follows: Luciferase assay (LDLR promoter-luciferase reporter in CHO cells). In kind it is cell-based, Chinese Hamster. Set-up: Emax: unit not given here. The note with it: 48 hours after treatment; for EC50: Cricetulus griseus. On the procedure: Chinese Hamster Ovary (CHO) cells cultivated in 2×75 […] conical flasks had their media removed and washed in 5 mL of PBS before 2 mL of Trypsin was added. The cells were swirled for a minute, before being placed in the 37° C. incubator for 5 min. The conical flasks were tapped to remove cells from the bottom, and aspirated out into 2×13 mL of Ham F-12 media containing 10% FBS and 1% L-Glutamine. The cells were then spun down at 1000 rpm for 5 min. The media was aspirated off, and the pellet from each of the two flasks was resuspended in 5 mL of media. The cells were counted, plated into a 24-well plate to give 1.5×10^5 cells/well in 500 μL of media, and placed in the 37° C. incubator. 2 mL of the remaining cells was added to 38 mL of media, plated 20 mL each into 2×75 cm^2 conical flasks, and placed in the 37° C. incubator.
After 24 h, the media was aspirated out and replaced with 500 μL Lipoprotein Deficient Serum (LPDS) media. The plate was then returned to the incubator for a further 24 h.
Following this incubation, the compound to be tested was dissolved in DMSO to give a concentration of 1 mg/mL. An appropriate amount of this solution was then added to FPS media to give 5 mL at a concentration of 10 μM. Serial dilution then gave the other required concentrations, to give testing concentrations of 0.1 nM, 1 nM, 10 nM, 30 nM, 100 nM, 1 μM and 10 μM. A 1 μM compound 49 positive control was also prepared from a stock solution in DMSO, and 0.1% DMSO control was also prepared as a negative control. Each well was then treated with 500 μL of each solution, according to the plate map shown below, and the plates were placed in the incubator.
48 hours after treatment, the cell media was aspirated and cells were washed with 500 μL of PBS. 100 μL of luciferase lysis buffer (12.5 mL 1M TrisPO4 pH 7.8, 5 mL 0.2M CDTA solution, 50 mL glycerol, 5 mL Triton-X 100, 427.5 mL H2O) was added to each sample; samples were shaken for 20 min at 4° C. before being pipetted up and down, then the plate was spun at 4500 rpm for 5 min. 75 μL of lysate was pippetted into a 96-well plate. The plate was then run on a Dynex Technologies MLX 96 Well Plate Luminometer using revalation software. 100 µL of luciferase assay buffer solution and 50 μL of Luciferin solution (200 μL Luciferin 10X, 1800 μL H2O) was dispensed each time. Response was recorded in Relative Light Units (RLUs), normalised to standards from a bicinchoninic acid (BCA) assay.
Prepared using 3 mL luciferase assay buffer (7.5 mL 1M MgSO4, 7.5 mL 1M TrisPO4 pH 7.8 buffer, 20 mL 0.1M EGTA pH 7.8, 465 mL H2O), added to 60 μL of 100 mM ATP and 6 μL of 1 M DTT solution.

In the next data set the target is T1, Squalene Synthase (Homo sapiens, UniProt P37268).
T1 construct: 12 μg human liver microsomes; from tissue; host or cells: human liver microsomes
T1 sequence (P37268 1-417): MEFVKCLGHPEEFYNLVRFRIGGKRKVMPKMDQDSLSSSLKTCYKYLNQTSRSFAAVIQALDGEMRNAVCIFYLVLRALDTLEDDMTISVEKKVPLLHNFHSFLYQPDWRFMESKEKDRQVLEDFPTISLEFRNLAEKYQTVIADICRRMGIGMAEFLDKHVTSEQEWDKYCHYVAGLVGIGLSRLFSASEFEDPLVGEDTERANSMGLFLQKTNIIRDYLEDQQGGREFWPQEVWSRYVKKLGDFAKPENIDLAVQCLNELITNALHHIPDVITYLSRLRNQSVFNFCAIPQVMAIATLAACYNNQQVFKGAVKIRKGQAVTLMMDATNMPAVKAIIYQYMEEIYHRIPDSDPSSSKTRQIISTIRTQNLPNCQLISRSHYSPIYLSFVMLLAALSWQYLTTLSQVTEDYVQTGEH
The data set is described as follows: Squalene Synthase activity assay in human liver microsomes with [1-3H]FPP. The following applies: FIG. 1b. Format: biochemical. As to the method:
Squalene Synthase activity assays were performed in 1 mL reactions containing 50 mM phosphate buffer (pH 7.4, 10 mM MgCl2), 12 μg human liver microsomes, [1-^3H]FPP (0.045 Ci/mmol) and 0.5 mM NADPH. Enzyme and inhibitors were incubated for 10 minutes at 37° C. Substrate was then added and reaction was incubated for 10 min at 37° C. Reaction was stopped by adding 1 mL of 15% KOH in ethanol and incubated at 65° C. for 30 minutes. 5 mL of petroleum ether was added and reaction was shaken for 10 minutes at room temperature. The lower aqueous phase was frozen and the upper organic phase transferred to fresh glass tubes containing 2 mL distilled water. 1.5 mL of the organic phase was transferred to a scintillation vial containing liquid scintillation fluid, and radioactivity was quantitated using a Beckman liquid scintillation counter. Data was analyzed using Prism Graphpad software.
As a representative example, compound 40 (Example 15; JM-086) was tested for squalene synthase inhibitory properties alongside compound 15a (Example 1), and the known squalene synthase inhibitor, YM-53601, as a positive control.

In data set [2] the test system is CHO pLDLR-Luciferase cells. The data set is described as follows: Combination therapy experiments, luciferase compound screen with simvastatin. The following applies: Cricetulus griseus; single agent, CHO-pLDLR-Luc, FIG. 3a/3b; read-out: EC50, increase in levels of luciferase. In kind it is cell-based, Chinese Hamster. On the procedure:
As described above, CHO WT cells transfected with pLDLR-Luc (CHO-pLDLR-Luc) were grown in HamsF-12(Sigma N4888) medium supplemented with 10% fetal bovine serum (FBS), 1% penicillin/streptomycin, 1% L-glutamine, in a 5% CO2 incubator at 37° C. CHO-pLDLR-Luc were seeded in 24-well plates at 1.5×10^5 per well. After 24h cells were changed to HamsF-12(Sigma N4888) supplemented with 10% lipoprotein deficient serum (LDPS), 1% penicillin/streptomycin, 1% L-glutamine. Compounds and simvastatin (Sigma S6196) dissolved in DMSO and Cholesterol(Sigma C8667) and 25-Hydroxycholesterol(Sigma H1015) dissolved in ethanol were added 24 h after serum starvation.
Simvastatin and compound 40 (Example 15; JM-086) were added together. The compounds were added at the exact same time, with the EC50 of either compound 40 (JM-086) or Simvastatin added into the media containing increasing doses of either compound 40 (JM-086) or Simvastatin then being added to the CHO pLDLR-Luciferase cells.

As to `CN(C)CCCOc1ccc(/C=C/c2ccccc2)cc1` [Compound 15a, (E)-N,N-dimethyl-3-(4-styrylphenoxy)propan-1-amine], the melting point was 75 to 77 °C. In data set [1], this compound displayed an Emax of 5 and an EC50 of 39 nM. Also, on Squalene Synthase, the squalene synthase inhibition result was “dose-dependent activity”.
In data set [1], `Oc1ccc(/C=C/c2ccccc2)cc1` [Compound 32, (E)-4-styrylphenol] had an Emax of 34 and an EC50 of 3000 nM.
As for `CC(C)CCCOc1ccc(/C=C/c2ccccc2)cc1` [Compound 39, (E)-1-((4-methylpentyl)oxy)-4-styrylbenzene], the melting point lay in the range of 97 to 98 °C. In data set [1], this compound had an Emax of 8 and an EC50 of 1000 nM.
Take `OCCCOc1ccc(/C=C/c2ccccc2)cc1` [Compound 40, (E)-3-(4-styrylphenoxy)propan-1-ol]: in data set [1], the Emax is listed as 32 and the concentration for a half-maximal effect (EC50) came to 35 nM. Besides, the squalene synthase inhibition entry at Squalene Synthase is “dose-dependent activity”. In data set [2], the EC50 amounted to 31.5 nM.
For the compound `COCCCOc1ccc(/C=C/c2ccccc2)cc1` [Compound 41, (E)-1-(3-methoxypropoxy)-4-styrylbenzene], the melting point fell in the range of 77.8 to 81 °C. In data set [1], this compound came in with an Emax of 44 and an EC50 of 1500 nM.
`COc1ccc(/C=C/c2ccc(OCCCN(C)C)cc2)cc1` [Compound 44a, (E)-3-(4-(4-methoxystyryl)phenoxy)-N,N-dimethylpropan-1-amine] had a melting point of 138 to 140 °C. In data set [1], the Emax came to 30 and the midpoint of the response, the EC50, lay at 260 nM.
Compound `COc1cccc(/C=C/c2ccc(OCCCN(C)C)cc2)c1` [Compound 44b, (E)-3-(4-(3-methoxystyryl)phenoxy)-N,N-dimethylpropan-1-amine] gave a melting point of 28 to 32 °C. In data set [1], this compound yielded an Emax of 9 and a half-maximal effective concentration (EC50) of 2500 nM.
Regarding `COc1ccccc1/C=C/c1ccc(OCCCN(C)C)cc1` [Compound 44c, (E)-3-(4-(2-methoxystyryl)phenoxy)-N,N-dimethylpropan-1-amine], the melting point was in the range of 177.6 to 180.9 °C. In data set [1], this compound showed an Emax of 8 and an EC50 of 310 nM.
In the case of `CN(C)CCCOc1ccc(/C=C/c2ccc(F)cc2)cc1` [Compound 46a, (E)-3-(4-(4-fluorostyryl)phenoxy)-N,N-dimethylpropan-1-amine], the melting point was in the range of 128.8 to 129.9 °C. In data set [1], this compound showed an Emax of 24 and a 50% effective concentration (EC50) of 2000 nM.
In turn, `CN(C)CCCOc1ccc(/C=C/c2cccc(F)c2)cc1` [Compound 46b, (E)-3-(4-(3-fluorostyryl)phenoxy)-N,N-dimethylpropan-1-amine] had a melting point of 56.2 to 58.6 °C. In data set [1], the Emax was found to be 9 and the concentration for a half-maximal effect (EC50) amounted to 1500 nM.
`CN(C)CCCOc1ccc(/C=C/c2ccc([N+](=O)[O-])cc2)cc1` [Compound 47a, (E)-N,N-dimethyl-3-(4-(4-nitrostyryl)phenoxy)propan-1-amine] showed a melting point of 85.2 to 85.9 °C. In data set [1], this compound gave an Emax of 39 and an EC50 of 3000 nM.
Regarding `CN(C)CCCOc1ccc(/C=C/c2ccccc2[N+](=O)[O-])cc1` [Compound 47c, (E)-N,N-dimethyl-3-(4-(2-nitrostyryl)phenoxy)propan-1-amine], the melting point lay within 51.9 to 57.1 °C. Further, in data set [1], the Emax was found to be 5 and a half-maximal response (EC50) required 3000 nM.
As to `CN(C)CCCOc1ccc(/C=C/c2ccccc2)cc1F` [Compound 62, (E)-3-(2-fluoro-4-styrylphenoxy)-N,N-dimethylpropan-1-amine], the melting point lay in the range of 68.2 to 72.6 °C. In data set [1], the Emax was found to be 15 and the response was half-maximal at 3000 nM (EC50).
For `COc1ccc(/C=C/c2ccccc2)cc1` [Compound 65, (E)-1-methoxy-4-styrylbenzene], in data set [1], the Emax is on record as 6 and the midpoint of the response, the EC50, lay at 50 nM.
`CNCCCOc1ccc(/C=C/c2ccccc2)cc1` [Compound 69, (E)-N-methyl-3-(4-styrylphenoxy)propan-1-amine] registered a melting point of 84.2 to 87.7 °C. In data set [1], this compound came in with an Emax of 8 and an EC50 of 320 nM.
On to `CCC(C)(C)C(=O)O[C@H]1C[C@@H](C)C=C2C=C[C@H](C)[C@H](CC[C@@H]3C[C@@H](O)CC(=O)O3)[C@H]21` [Simvastatin, reference compound], for which the concentration giving a half-maximal response (EC50) in data set [2] came out at 128 nM.

The values above are taken from patent US20170260126A1, “SQUALENE COMPOUNDS AS MODULATORS OF LDL-RECEPTOR EXPRESSION” (OXFORD UNIVERSITY INNOVATION LIMITED, priority 2014, published 2017).
